Experimental data from BindingDB's records for doi:10.1021/jm980131z (Boehringer Ingelheim (Canada), 1998).

Biological target: Human cytomegalovirus protease (Human herpesvirus 5)
Experiment: Inhibitory activity against human cytomegalovirus (HCMV) protease

Structure (SMILES)	IC50
CC[C@@H](NC(=O)N1C(=O)C[C@@H]1Cc1ccccc1)c1ccccc1 [(S)-2-Benzyl-4-oxo-azetidine-1-carboxylic acid ((R)-1-phenyl-propyl)-amide]	2.6 µM
O=C1C[C@H](Cc2ccccc2)N1C(=O)NCc1ccccn1 [(S)-2-Benzyl-4-oxo-azetidine-1-carboxylic acid (pyridin-2-ylmethyl)-amide]	33 µM
CC(=O)Nc1ccc(CN(C)C(=O)N2C(=O)C[C@@H]2Cc2ccccc2)cc1 [(S)-2-Benzyl-4-oxo-azetidine-1-carboxylic acid (4-acetylamino-benzyl)-methyl-amide]	17 µM
O=C1C[C@H](Cc2ccccc2)N1C(=O)Nc1ccc(F)cc1 [(S)-2-Benzyl-4-oxo-azetidine-1-carboxylic acid (4-fluoro-phenyl)-amide]	3.7 µM
C[C@@H](NC(=O)N1C(=O)C[C@H]1Cc1ccccc1)c1ccccc1 [(R)-2-Benzyl-4-oxo-azetidine-1-carboxylic acid ((R)-1-phenyl-ethyl)-amide]	> 75 µM
CC1(C)C(=O)N(C(=O)NCc2ccncc2)[C@H]1Cc1ccccc1 [(S)-2-Benzyl-3,3-dimethyl-4-oxo-azetidine-1-carboxylic acid (pyridin-4-ylmethyl)-amide]	> 75 µM
COc1ccc(NC(=O)N2C(=O)C[C@@H]2Cc2ccccc2)cc1 [(S)-2-Benzyl-4-oxo-azetidine-1-carboxylic acid (4-methoxy-phenyl)-amide]	3.9 µM
C[C@H](NC(=O)N1C(=O)C[C@@H]1Cc1ccccc1)c1ccccc1 [(S)-2-Benzyl-4-oxo-azetidine-1-carboxylic acid ((S)-1-phenyl-ethyl)-amide]	42 µM
CN(Cc1ccc(Cl)cc1)C(=O)N1C(=O)C[C@@H]1Cc1ccccc1 [(S)-2-Benzyl-4-oxo-azetidine-1-carboxylic acid (4-chloro-benzyl)-methyl-amide]	6.9 µM
CC(C)c1ccc(CN(C)C(=O)N2C(=O)C[C@@H]2Cc2ccccc2)cc1 [(S)-2-Benzyl-4-oxo-azetidine-1-carboxylic acid (4-isopropyl-benzyl)-methyl-amide]	6.4 µM
CN(Cc1ccc(C#N)cc1)C(=O)N1C(=O)C[C@@H]1Cc1ccccc1 [(S)-2-Benzyl-4-oxo-azetidine-1-carboxylic acid (4-cyano-benzyl)-methyl-amide]	6 µM
CS[C@@H]1C(=O)N(C(=O)NCc2ccncc2)[C@H]1Cc1ccccc1 [(2S,3S)-2-Benzyl-3-methylsulfanyl-4-oxo-azetidine-1-carboxylic acid (pyridin-4-ylmethyl)-amide]	6.9 µM
CC1(C)C(=O)N(C(=O)NCc2ccncc2)[C@@H]1Cc1ccccc1	> 300 µM
CN(Cc1ccc(N)cc1)C(=O)N1C(=O)C[C@@H]1Cc1ccccc1 [(S)-2-Benzyl-4-oxo-azetidine-1-carboxylic acid (4-amino-benzyl)-methyl-amide]	20 µM
CCC[C@@H](NC(=O)N1C(=O)C[C@@H]1Cc1ccccc1)c1ccccc1 [(S)-2-Benzyl-4-oxo-azetidine-1-carboxylic acid ((R)-1-phenyl-butyl)-amide]	3.4 µM
C[C@@H](NC(=O)N1C(=O)C[C@@H]1Cc1ccccc1)c1ccccc1 [(S)-2-Benzyl-4-oxo-azetidine-1-carboxylic acid ((R)-1-phenyl-ethyl)-amide]	4 µM

The next lines start with the values.

IC50	Structure (SMILES)
13 µM	O=C1C[C@H](Cc2ccccc2)N1C(=O)N(Cc1ccccc1)OCc1ccccc1 [(S)-2-Benzyl-4-oxo-azetidine-1-carboxylic acid benzyl-benzyloxy-amide]
11 µM	CN(Cc1ccccc1[N+](=O)[O-])C(=O)N1C(=O)C[C@@H]1Cc1ccccc1 [(S)-2-Benzyl-4-oxo-azetidine-1-carboxylic acid methyl-(2-nitro-benzyl)-amide]
10 µM	O=C1C[C@H](Cc2ccccc2)N1C(=O)NCc1ccccc1 [(S)-2-Benzyl-4-oxo-azetidine-1-carboxylic acid benzylamide]
4.3 µM	CN(Cc1ccc(S(=O)(=O)C(F)(F)F)cc1)C(=O)N1C(=O)C[C@@H]1Cc1ccccc1 [(S)-2-Benzyl-4-oxo-azetidine-1-carboxylic acid methyl-(4-trifluoromethanesulfonyl-benzyl)-amide]
10 µM	O=C1C[C@H](Cc2ccccc2)N1C(=O)NCc1cccnc1 [(S)-2-Benzyl-4-oxo-azetidine-1-carboxylic acid (pyridin-3-ylmethyl)-amide]
6.9 µM	CN(Cc1cccc([N+](=O)[O-])c1)C(=O)N1C(=O)C[C@@H]1Cc1ccccc1 [(S)-2-Benzyl-4-oxo-azetidine-1-carboxylic acid methyl-(3-nitro-benzyl)-amide]
8.4 µM	O=C1C[C@H](Cc2ccccc2)N1C(=O)NC1CCCCC1 [(S)-2-Benzyl-4-oxo-azetidine-1-carboxylic acid cyclohexylamide]
12 µM	O=C1C[C@H](Cc2ccccc2)N1C(=O)NCc1ccncc1 [(S)-2-Benzyl-4-oxo-azetidine-1-carboxylic acid (pyridin-4-ylmethyl)-amide]
1.5 µM	CN(Cc1ccc([N+](=O)[O-])cc1)C(=O)N1C(=O)C[C@@H]1Cc1ccccc1 [(S)-2-Benzyl-4-oxo-azetidine-1-carboxylic acid methyl-(4-nitro-benzyl)-amide]
6.9 µM	CN(Cc1ccc(SC(F)(F)F)cc1)C(=O)N1C(=O)C[C@@H]1Cc1ccccc1 [(S)-2-Benzyl-4-oxo-azetidine-1-carboxylic acid methyl-(4-trifluoromethylsulfanyl-benzyl)-amide]
5.2 µM	Cc1ccc(NC(=O)N2C(=O)C[C@@H]2Cc2ccccc2)cc1 [(S)-2-Benzyl-4-oxo-azetidine-1-carboxylic acid p-tolylamide]
6.2 µM	CON(Cc1ccccc1)C(=O)N1C(=O)C[C@@H]1Cc1ccccc1 [(S)-2-Benzyl-4-oxo-azetidine-1-carboxylic acid benzyl-methoxy-amide]
> 75 µM	O=C1C[C@H](Cc2ccccc2)N1C(=O)N(Cc1ccccc1)C1CC1 [(S)-2-Benzyl-4-oxo-azetidine-1-carboxylic acid benzyl-cyclopropyl-amide]
8.9 µM	Cc1ccc(CN(C)C(=O)N2C(=O)C[C@@H]2Cc2ccccc2)cc1 [(S)-2-Benzyl-4-oxo-azetidine-1-carboxylic acid methyl-(4-methyl-benzyl)-amide]
